A word on the melting point: it is the temperature, or range, at which the solid turns liquid. In the case of `CC(C)(C)C(O)C(=CC1CCCCC1)n1cncn1` (centres undefined), the melting point lay in the range of 145 to 148 °C. Then `COc1ccccc1C1CCN(C[C@@H](CC2CCCCC2)NC(=O)C2CCCCC2)CC1`, with 100 to 103 °C. In the case of `O=[N+]([O-])c1ccc(OCc2ccc(C(F)(F)F)cc2)cc1` it was 80.5 to 81.5 °C; in that of `O=C(Nc1ccc(CP(=O)(O)O)cc1)c1cc(=O)c2ccccc2o1`, 265 to 266 °C. Then `CNC(=O)c1cc(N)cc(N2CCOCC2)c1`, with 201 to 204 °C; and `Cc1ccc2oc(Cc3nc4cc(C)ccc4o3)nc2c1`, with 91 °C; and `O=P1(c2ccccc2)NCc2ccccc21` (centres undefined), with 177 to 180 °C. `NNC(=O)Nc1ccc(O)cc1` returned a melting point of 184 to 186 °C.

For `CCCn1cc(-c2ccc3cc4c(cc3c2)C(C)(C)CCC4(C)C)cc1C(=O)O`, the melting point is 143 to 145 °C. `CC(OC(=O)Nc1ccccc1)c1ccccc1[N+](=O)[O-]` (centres undefined) gave a melting point of 74 to 75 °C. In the case of `CSC(=S)Nc1ccccc1N` it was 114 °C. Consider `CCOC(=O)/C=C/c1c[nH]c(-c2cccs2)c1`, for which the melting point lay within 104 to 105 °C. In the case of `Oc1ccc2c(c1)COc1c-2cc2ccc(O)cc2c1-c1ccc(Cl)cc1` it was 239 to 242 °C; in that of `N#CCc1nnc(N)s1`, 163 to 164 °C; in that of `COc1cc(CN2CCN(C(=O)C3=Cc4ccc(OC(=O)c5ccccc5)cc4CC3)CC2)cc(OC)c1OC`, 117 to 119 °C. `COc1ccc(N2CCCn3c2nc2c(Cl)ccc(C(OCC(F)F)C4CC4)c23)c(C)n1` (centres undefined) gave a melting point of 124 to 126 °C. In the case of `CC(=O)Cc1nc(CN2CCCCC2)no1` it was 66 to 67 °C; in that of `CCOC(=O)c1c(O)c2ccc(C)nc2n(C)c1=O`, 143 to 145 °C. For the compound `C=C(C)C(=O)Nc1ccc(NC(=O)Nc2ccc(C#N)cc2)c(O)c1`, the melting point was in the range of 247 to 249 °C. The compound `OC[C@@H](O)c1ccccc1Cl` yielded a melting point of 39 °C. The compound `CC(=O)Nc1nc(-c2ccccc2)c(-c2ccc(=O)n(C(C)C)n2)s1` displayed a melting point of 202 to 204 °C. `Cc1cc(OCc2c(-c3c(Cl)cccc3Cl)noc2C(C)C)cnc1NC(=O)c1ccc(C(=O)O)cc1` yielded a melting point of 218 °C.

Compound `Nc1nc2ccc3ccc(CNc4ccc([N+](=O)[O-])cc4)cc3c2c(=O)[nH]1` gave a melting point above 230 °C. Then `O=C(O)c1ccc(CNC=C2C(=O)c3ccccc3OC2c2ccccc2)cc1` (centres undefined), with 195 to 200 °C. In the case of `CNc1nc(C(C)c2ccc(-c3ccccc3)c(F)c2)c(C=O)s1` (centres undefined) it was 126 to 128 °C; in that of `OCc1cnc2cc(C(F)(F)F)ccc2c1O`, 302 to 304 °C; in that of `Cc1nc2cnccc2n1-c1ccc(Cn2nnc3ccccc32)cc1`, 126 to 127 °C. In the case of `CCCc1c(OCCCOc2ccc(Cl)c3ccccc23)ccc2c1OC(CCC(=O)O)(CCC(=O)O)CC2=O` it was 170 to 171 °C; in that of `N#Cc1cnn(-c2ccc(Cl)c(Cl)c2Cl)c1N1CCCC1=O`, 160 to 161 °C. Consider `CCCCn1c(=O)cc(O)c2ccccc21`, for which the melting point lay in the range of 211 to 213 °C. Then `Cc1nc(-n2ccccc2=O)sc1C(=O)NCc1ccc(F)cc1`, with 170 to 172 °C; and `CCCn1c(=O)c(-c2c(Cl)cccc2Cl)cc2cnc(N)nc21`, with 196 to 197 °C; and `CCCCNc1nc2c(C(=O)OCC)cnn2c2c1cnc1c2cnn1CC`, with 275 to 277 °C.

`COc1ccc(C(=O)Nc2ccc(C(=O)O)cc2)cc1C(C)(C)C` came in with a melting point of 250 °C. Take `CCOC(=O)C(=C1NCCCN1OC)[N+](=O)[O-]`: the melting point is 177 to 178 °C.

With `Cn1ccc2c1CCn1ncnc1C2=C1CCNCC1`, the melting point is 183 °C. In the case of `C=C(Cc1ccc2c(c1)OCO2)C(=O)O` it was 121 °C. Regarding `CCOc1ccc(C(=O)C#N)cc1`, the melting point came out at 43 °C. `Cc1nnc2n1-c1ccc(N)cc1C(c1ccccc1Cl)=CC2` had a melting point of 271 to 273 °C.

Take `NCCc1ccc(C(N)=O)cc1`: the melting point lay in the range of 132 to 133 °C.

Turning to `Cc1nnc(-c2ccc3occ(-c4ccc(C(=O)O)c(F)c4)c3c2)o1`, the melting point lay in the range of 282 to 283 °C.

In the case of `N#CCCCCCCCn1c(-c2ccccc2)nc(-c2ccccc2)c1-c1ccccc1`, the melting point lay in the range of 93 to 94 °C. Then `O=C(c1ccccc1)N1CCc2nnc(NN=C3CCCCC3)cc2C1`, with 188 to 191 °C; and `CC(C)n1cc(C(=O)O)c(=O)c2cc(F)c(F)c(F)c21`, with 256 to 260 °C. In the case of `O=C(/C=C/c1ccc2ccccc2c1)Nc1cc(Cl)ccc1NC(=O)C(F)(F)F`, the melting point fell in the range of 179 to 185 °C. For `Cc1cc(NC(=O)N2CCc3cc(N(C)C)ccc32)c2ccccc2n1`, the melting point was in the range of 252 to 253 °C.

`COc1ccc(C#N)c(C=C(C)N(C)C)n1` displayed a melting point of 103 to 104 °C. Compound `CCN1C(=O)Cc2cc(C(=O)c3ccccc3)ccc21` showed a melting point of 134 to 136 °C. Then `COc1ccc(C=CC(=O)Nc2ccc(C(C)(C)C)cc2)cc1`, with 158 to 160 °C; and `Cc1noc2ncnc(NC3Cc4ccccc4C3)c12`, with 208 °C.

`NS(=O)(=O)Oc1cccc(-n2cnc(-c3ccccc3)c2)c1` displayed a melting point of 209 to 211 °C.

Compound `O=C1[C@@H](O)[C@@H]2OCCC[C@@H]2N1Cc1ccccc1` (relative stereo) showed a melting point of 136 to 138 °C.

Regarding `CCNC(=S)Nc1nc2ccc(OC(F)(F)F)cc2s1`, the melting point was 199 to 200 °C. Then `COC(=O)c1cc(OC)c(NC(=O)OCc2ccccc2)c(OC)c1`, with 132 to 133 °C.

In turn, `CC(=O)Nc1ccc2c(c1)CCC(=CN(C)C)C2=O` yielded a melting point of 207 to 210 °C.

Regarding `CCN1CCN(CCOc2cc3ncc(C#N)c(Nc4cc(OC)c(Cl)cc4Cl)c3cc2OC)CC1`, the melting point lay within 101 to 105 °C. Then `O=Cc1ccc2c(c1)OC(c1ccccc1)(c1ccccc1)O2`, with 157 to 159 °C; and `O=C(O)CSc1sccc1Br`, with 64 to 65 °C. Then `O=C1Cc2ccc(SCc3ccccc3)cc2N1`, with 132 to 134 °C; and `O=C(c1ccc(Cl)cc1)c1ccc(CS(=O)(=O)C(F)F)cc1`, with 154 to 157 °C. The compound `COC(=O)[C@@H]1Cc2ccccc2N1c1ccc(Cl)nn1` registered a melting point of 133 to 134 °C. Then `CCSc1ccc(-c2nccs2)c2c1C(=O)CC(C)C2` (centres undefined), with 117 to 118 °C; and `NS(=O)(=O)c1cc(CC(=O)C=CC(=O)O)ccc1Cl`, with 217 to 218 °C; and `O=C(O)c1ccc(N2C(=O)c3ccc(C(=O)O)cc3C2=O)cc1`, with 377 to 379 °C. With `COc1ccc(C#CCCCCCCC#CCO)cc1OC`, the melting point was 39 to 41 °C.

Compound `O=C(C1=NCCCCCN1)c1ccccc1` registered a melting point of 70 to 71 °C. For `Cc1ccc(S(=O)(=O)OCC2COc3ccc(N)c(C=NO)c3O2)cc1` (centres undefined), the melting point lay in the range of 164 to 166 °C. In the case of `CCOC(=S)c1cccc2nnsc12` it was 114 to 115 °C. Then `O=S1(=O)c2cccc3cccc(c23)N1CCCN1CCC(CC2C=Cc3ccccc32)CC1` (centres undefined), with 140 °C; and `O=C(O)COc1ccc(SCc2ccc(OCc3ccc(C(F)(F)F)cc3)cc2)c2c1CCCO2`, with 143 to 144 °C; and `O=S(=O)(NCCCCOc1ccc(-n2ccnc2)cc1)c1ccccc1`, with 110 to 111 °C. In turn, `CCOc1nc2ccnn2c2ncccc12` displayed a melting point of 162 °C. `COc1ccc(C(=C/C=C/C(=O)O)c2ccc(OC)c(OC)c2)cc1OC` yielded a melting point of 174 to 176 °C. In the case of `COc1ccc(-c2c(C#N)ccnc2SC)cc1` it was 80 to 81 °C. Then `CCCc1ccc2c(=O)cc(C(=O)O)[nH]c2c1`, with above 240 °C; and `CCCOc1ccccc1-c1nc2sccc2c(=O)[nH]1`, with 115 to 117 °C; and `O=C1c2ccccc2C(c2ccccc2)N1C1CCN(CCC(c2ccccc2)c2ccccc2)CC1` (centres undefined), with 65 to 69 °C.

Consider `COC(=O)C(O)=Cc1ccc(OCc2ccc(F)cc2)cn1`, for which the melting point lay in the range of 131 to 132 °C. `O=C(Nc1c(C(=O)O)[nH]c2cc(Cl)cc(Cl)c12)c1ccccc1Cc1ccccc1` displayed a melting point of 234 to 235 °C. `COC(=O)[C@@H]1C[C@H](OC(=O)c2ccccc2)CN1C(=O)OC(C)(C)C` registered a melting point of 89 to 90 °C.

The compound `CC(C)(CO)Nc1nc(-c2ccccc2)nc2ccccc12` came in with a melting point of 136 to 138 °C.

Take `COc1ccccc1-c1cnc(-c2ccccc2)[nH]c1=O`: the melting point lay within 245 to 247 °C.

In turn, `CN(C)Cc1cnc(NC(=O)[C@H](CC2CCCC2)c2ccc(S(C)(=O)=O)c(Cl)c2)cn1` returned a melting point of 88 to 91.5 °C.

Compound `CC1(C)CCC(C)(C)c2cc(N(Cc3cccs3)C(=O)Nc3ccc(C(=O)O)cc3)ccc21` registered a melting point of 167 to 170 °C. With `COc1ccc2c(c1O)NC(O)C1CCCN1C2=O` (centres undefined), the melting point was in the range of 152 to 155 °C.

`COc1ccc(-n2nc(CBr)cc2-c2ccc(C)cc2)cc1` had a melting point of 119 to 121 °C. In the case of `O=c1c2c(c3cccnc3n1-c1ccccc1)OC(CO)C2` (centres undefined) it was 267 to 268 °C; in that of `O=C(Cc1ccccc1C(=O)O)Nc1cccc(/C=C/c2nc(C3CCCC3)cs2)c1`, 209 to 210 °C. In the case of `CCCCOc1cc(/C=C(\OCC)C(=O)O)ccc1OCCc1ccc(OS(C)(=O)=O)c(Cl)c1` it was 113 °C.

With `CCOc1c(C=NOC)c(=O)n(C)c(=O)n1C`, the melting point lay within 108 to 109 °C. Then `Cc1cccc(N2CCN(CCCCNC(=O)c3cc4ccccc4o3)CC2)c1`, with 119 to 120 °C. In the case of `Cc1cc(SCc2ccc(OCc3ccc(Cl)cc3)cc2)ccc1OCC(=O)O` it was 164 °C; in that of `CN1C[C@@H](O)[C@H](Oc2ccccc2)C1` (relative stereo), 89 to 90 °C. In the case of `O=C(Nc1ccccn1)C(CC1CCCC1)c1ccc(-c2cccnc2)cc1` (centres undefined), the melting point was 139 to 140 °C.

Source of the values: a melting point compilation (Tetko et al.; mined from patent text by program, amines drawn as free bases though some values may be those of a salt).
